# Source: patent US6630312B2, “Method for identifying compounds for treatment of insulin resistance” (Joslin Diabetes Center, Inc., priority 1999, dated 2003)
# Experiments:
# [1] = tested on: IRS-2; test: Tyrosine phosphorylation of IRS-2 in Fao hepatoma cells, TNF-α induced 'insulin resistance'; assay type: cell-based; settings: for Reversal of TNF-α induced 'insulin resistance': doses known to have potent biological effects, cells not restated; for Tyrosine-phosphorylation of IRS-2: Fao hepatoma cells
# [2] = tested on: IKKβ; settings: without activating upstream elements in the TNF-α signaling cascade; cited from earlier work
# [3] = tested on: isolated tissues and cultured cells; settings: cited from earlier work
# [4] = tested on: Zucker fa/fa rats; test: Effects of high-dose salicylates in Zucker fa/fa rats (GTT, ITT, serum lipids, ALT); settings: for Food intake, blood chemistry, or body weight: Zucker fa/fa rats
# Excerpt: (§1) Ob/ob mice are leptin deficient.
# [5] = tested on: Zucker fa/+ rats; test: Effects of high-dose aspirin in Zucker fa/+ rats (oral GTT); assay type: in vivo, rat; settings: 120 mg/kg/day
# Excerpt: as §1
# [6] = tested on: ob/+ mice; test: Effects of high-dose aspirin in ob/+ mice (GTT); assay type: in vivo, mouse; settings: aspirin treatment, 120 mg/kg/day; intraperitoneal GTT
# Excerpt: as §1
# [7] = tested on: Insulin receptor (IR); test: Insulin receptor tyrosine autophosphorylation in tissues from treated Zucker rats; assay type: in vivo, rat; settings: liver and muscle of treated Zucker rats vs untreated
# Description: (§2) Tissues were isolated from treated animals and insulin signaling proteins were analyzed. […] A cascade consisting of insulin receptor (IR), insulin-receptor substrate (IRS) proteins, PI 3-kinase and 3-phosphoinositide-dependent protein kinase-1 (PDK1), is required for maintenance of metabolic homeostasis.
# [8] = tested on: AKT kinase; test: Insulin-stimulated AKT phosphorylation in tissues from treated Zucker rats; assay type: in vivo, rat; settings: liver and muscle of treated Zucker rats vs untreated
# Description: as §2
# [9] = tested on: IRS-1; test: Electrophoretic mobility of IRS-1 from livers of treated animals; assay type: in vivo; settings: animal livers; suggests decrease in Ser/Thr phosphorylation
# Excerpt: In cultured cells, IRS proteins are especially prone to phosphorylation on serine and threonine residues, which opposes the effect of tyrosine phosphorylation by inhibiting signaling.
# [10] = tested on: IR β-subunit; test: Insulin-stimulated tyrosine phosphorylation of IR in 3T3-L1 adipocytes made 'insulin resistant'; assay type: cell-based; settings: for IR and IRS-1 protein levels: TNF-α and aspirin-treated cells
# Description: (§3) Culture cells were used as follows to investigate the mechanisms relating to salicylate treatment to the in vivo reversal of insulin resistance. TNF-α treatment of 3T3-L1 adipocytes induced ‘insulin resistance’, as judged by significant decreases in insulin-stimulated tyrosine phosphorylation of IR β-subunit (42±11%) and IRS-1 (37±9%). TNF-α mediated ‘insulin resistance’ was reversed by pretreatment with high-dose (5 mM) aspirin. IR and IRS-1 phosphorylation levels were restored to 126±24% and 136±35%, respectively, compared to untreated controls; IR and IRS-1 protein levels were unchanged in TNF-α and aspirin-treated cells. TNF-α activates a cascade of adapters and kinases, including TRADD, RIP, TRAF2, and TAB1, which act upstream of JNK, p38 MAPK, and the IKK complex. Okadaic acid and calyculin A, two phosphatase inhibitors, also activate IKKβ (DiDonato et al. (1997) Nature 388:548; Harhaj & Sun (1997) J Biol Chem 272:5409), but without activating upstream elements in the TNF-α signaling cascade. Okadaic acid and calyculin A also induce ‘insulin resistance’ in isolated tissues and cultured cells (Robinson et al (1993) Am J Physiol 265:E36; Paz et al (1997) J. Biol Chem 272:29911). Therefore, it was determined whether aspirin would reverse ‘insulin resistance’ caused by these inhibitors. Marked reductions in insulin-stimulated IR (29±12%) and IRS-1 (16±2%) tyrosine-phosphorylation were prevented by incubating the cells with high-dose aspirin (109±15% and 93±25%, respectively).
# (§4) Hyperglycemia- and hyperinsulinemia-induced insulin resistance in diabetic subjects can be mimicked in cell culture by incubation with high concentrations of glucose and insulin. Potential mechanisms include glucose-induced activation of PKC, which can activate IKK. […] Concurrent treatment with aspirin restored IR (107±23%) and IRS-1 (90±23%) tyrosine-phosphorylation to levels seen in cells incubated at 5.5 mM glucose. […] Protein levels were restored by concurrent treatment with aspirin. Serine phosphorylation of IκB leads to ubiquitination and proteosome-mediated degradation. IRS proteins may be degraded by a similar route and in both cases, downregulation was inhibited by aspirin.
# [11] = tested on: IRS-1; test: Insulin-stimulated tyrosine phosphorylation of IRS-1 in 3T3-L1 adipocytes made 'insulin resistant'; assay type: cell-based
# Description: as §3, §4
# [12] = tested on: IR, IRS-2 and AKT; test: Insulin-stimulated activation of IR, IRS-2 and AKT in HEK293 cells expressing IKKβ, IKKα or NIK; assay type: cell-based; settings: treatment with aspirin
# Excerpt: To directly test the potential role of IKK, The IKKα and IKKβ catalytic subunits and NIK, an upstream activator, were expressed in HEK293 cells. Insulin stimulated the activation of IR, IRS-2 and AKT in these cells. Activation was attenuated by expression of IKKβ, IKKα or NIK. Attenuated activation was reversed by treatment with aspirin.
# [13] = tested on: Sprague-Dawley rats; test: Insulin sensitivity in Sprague-Dawley rats on aspirin treatment; assay type: in vivo, rat; settings: rats not insulin resistant, obese, or diabetic
# [14] = tested on: ob/ob mice; settings: 120 mg/kg/day; for Food intake, blood chemistry, or body weight: ob/ob mice
# Description: FIGS. 1A-H: In vivo effects of aspirin in Zucker fatty rats and ob/ob mice. (panels A-F) Twelve-week-old male Zucker rats (Harlan) and (panels G,H) eight-week-old ob/ob and ob/+ mice (Jackson Labs) were given free access to food and water. […] For glucose tolerance tests (GTT), glucose (2.0 g/kg) was administered by oral gavage (rats) or intraperitoneal injection (mice) after an overnight fast. (panels A,C) Blood glucose and (panels B,D) serum insulin levels were determined during oral glucose tolerance tests in (panels A,B) six Zucker fa/fa rats and (panels C,D) six fa/+ rats. For insulin tolerance tests (ITT) in (panel E) six Zucker fa/fa rats, insulin (2.0 U/kg) was injected intraperitoneally after an overnight fast. (panel F) Cholesterol (Chol), triglyceride (TG), long chain free fatty acid (FFA), and liver alanine aminotransferase (ALT) levels were measured in sera from fasting Zucker fa/fa rats. Glucose tolerance tests were conducted with (panel G) ten ob/ob mice and (panel H) ten ob/+ mice. Data are mean±SEM values; some SEM values are within the area of the symbols.
# A determination of the effects of high-dose salicylates on obese rodents with severe insulin resistance was performed as follows. Twelve-week-old male Zucker fa/fa rats and eight-week-old male ob/ob mice were treated for 3-4 weeks with 120 mg/kg/day of aspirin or salicylate, administered by continuous subcutaneous infusion; this dose is roughly equivalent to 5-10 g/day in humans.
# [15] = target: T1, IKKβ (Homo sapiens, UniProt O14920); settings: Yin et al (1998); cited from earlier work
# T1 sequence (O14920 1-756): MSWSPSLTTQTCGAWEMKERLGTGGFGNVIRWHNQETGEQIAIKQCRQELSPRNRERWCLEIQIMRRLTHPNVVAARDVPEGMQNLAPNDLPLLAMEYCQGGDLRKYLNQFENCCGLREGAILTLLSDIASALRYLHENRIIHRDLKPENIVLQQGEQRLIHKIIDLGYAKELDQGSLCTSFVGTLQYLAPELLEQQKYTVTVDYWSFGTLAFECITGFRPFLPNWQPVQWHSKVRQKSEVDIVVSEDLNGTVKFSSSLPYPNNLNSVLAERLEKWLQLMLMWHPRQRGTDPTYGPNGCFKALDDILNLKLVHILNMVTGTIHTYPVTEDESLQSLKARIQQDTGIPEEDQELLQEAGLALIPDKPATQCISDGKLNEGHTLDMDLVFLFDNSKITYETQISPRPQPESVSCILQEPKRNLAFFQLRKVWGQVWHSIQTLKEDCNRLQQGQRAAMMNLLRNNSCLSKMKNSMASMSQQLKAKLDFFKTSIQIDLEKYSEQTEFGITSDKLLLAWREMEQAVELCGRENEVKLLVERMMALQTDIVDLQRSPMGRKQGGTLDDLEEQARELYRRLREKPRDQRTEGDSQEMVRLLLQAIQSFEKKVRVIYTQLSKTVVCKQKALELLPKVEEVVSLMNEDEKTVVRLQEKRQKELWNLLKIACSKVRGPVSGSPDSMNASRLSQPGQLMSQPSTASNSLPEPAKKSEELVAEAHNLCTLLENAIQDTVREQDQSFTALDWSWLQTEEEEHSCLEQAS
# [16] = tested on: cyclooxygenases; settings: Furst (1994); cited from earlier work
# [17] = 120 mg/kg/day continuous subcutaneous infusion
# Excerpt: as §1
# [18] = tested on: IR; test: Insulin-stimulated IR activation in untransfected 293 cells; assay type: cell-based; settings: TNF-α treatment
# Excerpt: (§5) However, TNF-α is a potential mediator of acquired insulin resistance (Lang et al. (1992) Endocrinology 130:43; Feinstein et al. (1993) J Biol Chem 268:26055; Hotamisligil et al. (1993) Science 259:87; Hotamisligil et al. (1994) J Clin Invest 94:1543). TNF-α activates the IKK complex. TNF-α treatment of untransfected 293 cells reduced insulin-stimulated IR activation to 29±2% of untreated controls. Expression of kinase deficient, dominant inhibitory IKKα(K44A) or IKKβ(K44A) reversed TNF-α-inhibited IR activation. In fact, dominant-inhibitory IKKβ caused a 60% increase in insulin-stimulated IR tyrosine-phosphorylation over controls, whether or not cells had been treated with TNF-α. […] There is in vivo support for this, as well.
# [19] = tested on: AKT; test: AKT activation in 293 cells; assay type: cell-based; settings: TNF-α treatment
# Excerpt: as §5
# [20] = 3T3-L1 adipocytes overnight in 25 mM glucose and 10 nM insulin, concurrent aspirin, relative to cells at 5.5 mM glucose
# [21] = 3T3-L1 adipocytes, TNF-α, pretreatment with 5 mM aspirin
# [22] = phosphatase inhibitor-induced 'insulin resistance', cells incubated with high-dose aspirin
# [23] = 3T3-L1 adipocytes, TNF-α treatment alone
compound,measurement,setting,value
CS(=O)(=O)Nc1ccc([N+](=O)[O-])cc1OC1CCCCC1 [NS-398],Reversal of TNF-α induced 'insulin resistance',[1],no effect
C=C1[C@@H](O)[C@@H]2O[C@]3(CC[C@H](/C=C/[C@@H](C)[C@@H]4CC(C)=C[C@@]5(O[C@H](C[C@@](C)(O)C(=O)O)CC[C@H]5O)O4)O3)CC[C@H]2O[C@@H]1[C@@H](O)C[C@H](C)[C@H]1O[C@@]2(CCCCO2)CC[C@H]1C [Okadaic acid],Effect on IKKβ,[2],activate
same,'Insulin resistance' in isolated tissues and cultured cells,[3],induce
CC(=O)Oc1ccccc1C(=O)O [aspirin],Insulin levels during glucose tolerance test,"[4]; 120 mg/kg/day continuous subcutaneous infusion, 3-4 weeks, oral GTT",Concomitant reductions
same,Fasting blood glucose values and glucose tolerance,"[4]; 120 mg/kg/day continuous subcutaneous infusion, 3-4 weeks, oral GTT, compared to untreated controls",improved
same,"Food intake, blood chemistry, or body weight",[4]; 120 mg/kg/day,Neither aspirin nor salicylate affected
same,Free fatty acid (FFA) levels,"[4]; after the treatment period, aspirin 120 mg/kg/day",1.1 ± 0.2 mM
same,Fasting triglyceride levels,"[4]; after three weeks of aspirin treatment, 120 mg/kg/day",90 ± 58 mg/dL
same,Cholesterol levels,"[4]; fasting serum, aspirin 120 mg/kg/day",unaffected
same,Blood glucose in insulin tolerance test,"[4]; intraperitoneal insulin 2.0 U/kg after overnight fast, aspirin-treated animals",dramatic decreases
same,Time to drop in FFA levels after aspirin initiation,[4]; preceding reductions in triglyceride and glucose levels,≤ 1 week
same,Serum levels of liver enzyme alanine aminotransferase (ALT) (hepatotoxicity),[4]; throughout the studies,"normal, low"
same,Insulin levels during glucose tolerance test,[5]; aspirin-treated group,Significantly lower
same,Glucose levels during glucose tolerance test,[5]; following aspirin treatment,marginally reduced
same,Glucose intolerance,[6],normalized
same,Insulin receptor (IR) tyrosine autophosphorylation,[7],Significantly increased stimulation
same,Insulin-stimulated AKT phosphorylation,[8],increased
same,Electrophoretic mobility of IRS-1,[9],increased
same,Insulin-stimulated IR tyrosine-phosphorylation,[10]; [20],107±23%
same,IR and IRS-1 protein levels,[10]; 3T3-L1 adipocytes,unchanged
same,IR phosphorylation level compared to untreated controls,[10]; [21],126±24%
same,Protein levels of insulin signaling proteins downregulated by high glucose and insulin,"[10]; 3T3-L1 adipocytes, concurrent treatment with aspirin",restored
same,Insulin-stimulated IR tyrosine-phosphorylation,[10]; [22],109±15%
same,Insulin-stimulated IRS-1 tyrosine-phosphorylation,[11]; [20],90±23%
same,IRS-1 phosphorylation level compared to untreated controls,[11]; [21],136±35%
same,Insulin-stimulated IRS-1 tyrosine-phosphorylation,[11]; [22],93±25%
same,Reduced electrophoretic mobility of IRS-1 due to calyculin A-induced phosphorylation,[11]; with aspirin,reversed
same,Tyrosine-phosphorylation of IRS-2,[1]; TNF-α plus drug,115±31%
same,"Activation of IR, IRS-2 and AKT attenuated by expression of IKKβ, IKKα or NIK",[12],reversed
same,Insulin sensitivity,[13],increased insulin sensitivity
same,Fasting blood glucose values and glucose tolerance,"[14]; 3-4 weeks, intraperitoneal GTT, compared to untreated controls, every time point",significantly improved
same,"Food intake, blood chemistry, or body weight",[14],Neither aspirin nor salicylate affected
same,"Inhibition of IKKβ, relative potency",[15],equipotent inhibitors
same,"Potency towards the cyclooxygenases, aspirin relative to sodium salicylate",[16],~100 fold
COC[C@@H]([C@H](O)[C@H](O)C(=O)NCC[C@H](C)c1nc(/C=C/C[C@@H]2O[C@]3(C[C@@H](O)[C@@H]2C)O[C@H]([C@H](C[C@H](O)[C@H](C)[C@H](O)[C@H](C)/C=C(C)/C(C)=C/C=C/C(C)=C\C#N)OC)[C@H](OP(=O)(O)O)C3(C)C)co1)N(C)C [calyculin A],Effect on IKKβ,[2],activate
same,'Insulin resistance' in isolated tissues and cultured cells,[3],induce
CC(C)Cc1ccc(C(C)C(=O)O)cc1 (centres unmarked) [ibuprofen],Reversal of TNF-α induced 'insulin resistance',[1],"Neither ibuprofen nor naproxen, two NSAID inhibitors of COX1 and COX2, reversed"
COc1ccc2cc([C@H](C)C(=O)O)ccc2c1 [naproxen],Reversal of TNF-α induced 'insulin resistance',[1],"Neither ibuprofen nor naproxen, two NSAID inhibitors of COX1 and COX2, reversed"
"O=C([O-])c1ccccc1O.[Na+] [salicylate, sodium salicylate]","Food intake, blood chemistry, or body weight",[4]; 120 mg/kg/day,Neither aspirin nor salicylate affected
same,"Serum salicylate levels, mean",[17],0.81 ± 0.25 mM
same,"Serum salicylate levels, range",[17],0.3 to 1.3 mM
same,Insulin receptor (IR) tyrosine autophosphorylation,[7],Significantly increased stimulation
same,Insulin-stimulated AKT phosphorylation,[8],increased
same,Electrophoretic mobility of IRS-1,[9],increased
same,Tyrosine-phosphorylation of IRS-2,[1]; TNF-α plus drug,89±8%
same,"Food intake, blood chemistry, or body weight",[14],Neither aspirin nor salicylate affected
same,"Inhibition of IKKβ, relative potency",[15],equipotent inhibitors
TNF-α,IR and IRS-1 protein levels,[10]; 3T3-L1 adipocytes,unchanged
same,Insulin-stimulated tyrosine phosphorylation of IR β-subunit,[10]; [23],42±11%
same,Insulin-stimulated tyrosine phosphorylation of IRS-1,[11]; [23],37±9%
same,Tyrosine-phosphorylation of IRS-2,[1]; TNF-α treatment alone,39±9%
same,"Insulin-stimulated IR activation, of untreated controls",[18],29±2%
same,AKT activation,[19],18±15%
